Experiments:
[1] = Plasma JT002 concentrations in mice after a single oral dose; format: in vivo, mouse; conditions: single oral dose 25 mg/kg
Procedure: In vivo pharmacodynamics (PD) were evaluated in mice for determination of target engagement as this species is routinely used for assessment of preclinical efficacy. Treatment of fresh, whole blood with LPS plus ATP results in the NLRP3-dependent release of IL-1β, thus providing a robust method for tracking target engagement of NLRP3 inflammasome inhibitors in the circulation after oral dose administration[36],[47]. In vivo target engagement using ex vivo stimulation of blood was evaluated in mice at various times after oral dosing of JT002. For each time point tested, one group of mice received a single oral dose of 25 mg/kg JT002 (n = 8/group) and another group received the vehicle control (n = 8/group). At the time of harvest, blood was collected from each animal and an aliquot removed and processed to plasma for determination of JT002 concentrations. The remaining blood was stimulated ex vivo with LPS plus ATP followed by analysis of IL-1β concentrations (Fig. 3A). […] Consistent with these findings, plasma concentrations of JT002 decreased over time, with mean concentrations of ≥ 4.0 µM through 8 h and a mean concentration of 6 nM at the 24-h sampling (Fig. 3C,D). […]

[2] = tested on: Nlrp3 A350V/+ CreT knock-in mice; assay: Nlrp3 A350V/+ CreT knock-in mouse model of Muckle Wells syndrome; format: in vivo; conditions: 30 mg/kg orally once daily
Procedure: The effect of JT002 treatment on systemic and hepatic inflammation and hepatic fibrosis was evaluated in vivo using a murine Nlrp3 knock-in (KI) model of human Muckle Wells syndrome. In humans, mutation of alanine 352 to valine (A352V) in NLRP3 results in the constitutively active NLRP3 inflammasome which leads to excessive cytokine production and a clinical presentation characteristic of MWS[11]. The Nlrp3^A350V/+ CreT KI murine model (Nlrp3 KI model) contains a conditional A350V autosomal-dominant mutation that is analogous to the human A352V mutation[13],[23],[25]. In this model, mutant Nlrp3 expression occurs only in mice expressing Cre recombinase, which is inducible through the administration of tamoxifen, thus allowing for temporal control of the gain-of-function mutant Nlrp3. In vehicle-control mice, tamoxifen-induced activation of mutant Nlrp3 produces an inflammatory and fibrotic phenotype consisting of weight loss, increased liver weight, elevated liver alanine aminotransferase (ALT), systemic and hepatic neutrophilia, increased hepatic collagen deposition, and increased numbers of activated hepatic stellate cells (HSCs)[13],[23],[25]. In the Nlrp3^A350V/+ CreT study, vehicle or 30 mg/kg JT002 (n = 4/group) was dosed orally once daily starting one day prior to the first administration of tamoxifen. One animal from each group was found dead on day 4 and day 11 from the JT002 dosed group and the vehicle group, respectively, leaving only 3 animals per group. […] Serum levels of ALT in vehicle-treated mice averaged 186 U/L while ALT levels were reduced to 93 U/L in mice administered JT002 (Fig. 4C).
Total RNA was isolated from liver tissue (~ 50 mg) via syringe homogenization in TRIzol™ and cDNA synthesized using the iScript™ cDNA Synthesis kit (Biorad, Hercules, CA, USA). Real-time PCR was performed using TaqMan Fast Advanced Master Mix (ThermoFisher) and samples were amplified using QuantStudio-7 (ThermoFisher) in accordance with manufacturers’ instructions. The following TaqMan Gene Expression Assays (cat. no. 4331182, Applied Biosystems, Foster City, CA) were used: Acta2, Mm00725412_s1; Ctgf, Mm01192933_g1; Mpo, Mm01298424_m1; Pycard, Mm00445747_g1; Casp1, Mm00438023_m1; Il1b assay ID Mm00434228_m1.
Nlrp3^A350V/+ CreT knock-in mice were provided by Hal M. Hoffman, University of California, San Diego, USA. The study was performed using two randomized groups of male and female Nlrp3^A350V/+ CreT mice (n = 4/group) between 6- and 8-weeks of age at the start of the study. Vehicle (0.5% methyl cellulose, 0.25% Tween 80 in 50 mM NaH2PO4/Na2HPO4 at pH 7.8) or JT002 at 30 mg/kg was administered orally once daily for 30 days starting on Day 1. Tamoxifen (free base) (MP Biomedicals, Solon, OH, USA) was prepared in 90% sunflower seed oil and 10% ethanol and administered at 50 mg/kg intraperitoneally (IP) daily for 4 consecutive days, starting on Day 1, followed by a booster injection on Day 16. Mice were weighed every day to monitor compound activity. On Day 29, a submandibular cheek bleed was performed to obtain whole blood for total blood cell counting. Mice were euthanized on Day 30 and blood and livers were harvested and stored appropriately. Tissue specimens were fixed in 10% formalin and subsequently embedded in paraffin for histopathological assessments, or snap frozen in liquid N2 and stored in low temperature freezers. Complete blood counts and differentials were conducted on a HemaVet Auto Blood Analyzer (Drew Scientific, Miami Lakes, FL, USA). In vitro quantitative determination of alanine aminotransferase (ALT) in serum was performed using the Infinity™ ALT (GPT) Liquid Stable Reagent (cat. n. TR71121, Fisher Diagnostics, Middletown, VA, USA). Sirius Red staining and immunohistochemistry for hepatic MPO and αSMA were performed as described previously.

concentration at 24 h ([1]; male, C57BL/6, mouse, plasma, 24-h sampling): 6 nM
concentration at 24 h ([1]; through 8 h): ≥ 4000 nM
Structure (SMILES): CO[C@@H]1COc2c(S(=O)(=O)NC(=O)Nc3c4c(cc5c3CCC5)CCC4)cnn2C1 [JT002]
body weight loss [2]: prevented the body weight loss
circulating eosinophil count [2]: strong trend for reduced
circulating neutrophil count [2]: significant normalization
circulating total white blood cell count [2]: significant normalization
degree of liver inflammation by H&E staining [2]: visible reduction in the degree of inflammation
hepatic collagen content (Picrosirius red staining) [2]: considerably reduced
hepatic gene expression of Acta2 [2]: substantially downregulated
hepatic gene expression of Casp1 [2]: substantially reduced
hepatic gene expression of Ctgf [2]: substantially downregulated
hepatic gene expression of Il1b [2]: substantially reduced
hepatic gene expression of Mpo [2]: substantially reduced
hepatic gene expression of Pycard (ASC) [2]: substantially reduced
reduction in hepatic immunostaining for αSMA (HSC activation) [2]: 93%
reduction of hepatic neutrophil recruitment (myeloperoxidase immunostaining) [2]: 91%
liver weight as a percent of body weight ([2]; vehicle 9.4): 5.7%
serum ALT level ([2]; vehicle 186 U/L): 93 U/L
